This note sets out measurements from BindingDB's records for patent US11066409 (Shionogi, 2021).

A word on the IC50: it is the concentration at which inhibition is half-maximal. Lower therefore signals greater potency in that assay.

In the assay the target is T1, P2X purinoceptor 7 [R270H] (Homo sapiens, UniProt Q99572, R270H).
T1 construct: gene P2RX7
T1 sequence (Q99572 whole entry R270H, looked up): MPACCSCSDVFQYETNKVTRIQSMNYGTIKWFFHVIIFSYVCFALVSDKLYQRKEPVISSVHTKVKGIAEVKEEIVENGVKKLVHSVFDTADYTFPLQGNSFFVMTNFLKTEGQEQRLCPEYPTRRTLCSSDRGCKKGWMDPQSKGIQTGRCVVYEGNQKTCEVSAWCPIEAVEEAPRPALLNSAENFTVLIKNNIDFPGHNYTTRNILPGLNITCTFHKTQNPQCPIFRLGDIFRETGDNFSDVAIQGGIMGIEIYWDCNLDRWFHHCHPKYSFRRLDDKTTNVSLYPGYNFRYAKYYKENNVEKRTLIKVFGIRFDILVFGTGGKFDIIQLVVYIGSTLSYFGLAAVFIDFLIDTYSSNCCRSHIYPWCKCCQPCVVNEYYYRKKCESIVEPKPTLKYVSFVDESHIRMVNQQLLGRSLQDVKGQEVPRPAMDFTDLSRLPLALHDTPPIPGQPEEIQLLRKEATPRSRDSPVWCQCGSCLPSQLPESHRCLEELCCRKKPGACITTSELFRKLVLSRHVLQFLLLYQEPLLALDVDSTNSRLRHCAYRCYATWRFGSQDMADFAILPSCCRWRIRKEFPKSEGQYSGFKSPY
Kind of assay: Inhibition Assay. As to the method:
Evaluation of a human P2X7 receptor inhibitory activity Stably expressing cell line (1321N1 cell transfected with the human P2X7 receptor gene (GenBank accession number NM_002562.5 including T606C and G952A SNP)) was used. The cells were seeded in a 384-well microtiter plate at a concentration of 8000 cells/well and cultured in the medium (10% fetal bovine serum, 25 mM HEPES, 1% penicillin and streptomycin in DMEM) for one day at 37° C. under 5% carbon dioxide atmosphere. After replacing with 20 μL of the HBSS buffer (20 mM HEPES, 55.6 mM D-glucose, 1× HBSS(−), pH7.4-7.5), 15 μL of 17.3 μM Yo-Pro solution in the HBSS buffer was added. The plate was placed in high-throughput cellular screening system FLIPR TETRA (Molecullar Devices, LLC.) and 15 μL of 130 μM BzATP solution in the HBSS buffer was added. Measurement of fluorescence intensity by FLIPR TETRA was started. After eight minutes, 15 μL of DMSO solutions containing different concentrations of the compound of the present invention as prepared by dilution with the HBSS buffer were dispensed to each well through the built-in automatic dispenser, and the measurement of fluorescence intensity was continued for 20 minutes. The maximum fluorescence intensity without the compound of the present invention is calculated as 0% inhibition and the maximum fluorescence intensity when the reference compound was added is calculated as 100% inhibition.
In turn, `COc1cc(Nc2nc(=O)c(F)c3n2C(c2cc(F)cc(F)c2)CC3)c(C)cc1F` (stereo not drawn) [US11066409, Compound I-0099] showed a 50% inhibitory concentration (IC50) below 10 nM. Turning to `Cc1ccc(OCCO)cc1NC1=NC(=O)N(C)C2=NCC(c3cc(F)c(F)c(F)c3)N12` (stereo not drawn) [US11066409, Compound I-0171], 19 nM corresponded to half-maximal inhibition (IC50). As to `Cc1cc(F)c(CO)cc1NC1=NC(=O)N(C)C2=NCC(c3cc(F)c(F)c(F)c3)N12` (stereo not drawn) [US11066409, Compound I-0168], half-maximal inhibition (IC50) required 23 nM.
